# Test results reported in PMC6383986, “Fragment-Based Covalent Ligand Screening Enables Rapid Discovery of Inhibitors for the RBR E3 Ubiquitin Ligase HOIP” (Journal of the American Chemical Society, 2019).
# “Also recorded” adds a separate entry of the source.
# Target: T1, HOIP RBR domain (Homo sapiens, UniProt Q96EP0)
# T1 construct: made in house; host or cells: E. coli BL21-GOLD(DE3)
# T1 sequence (Q96EP0 697-1072): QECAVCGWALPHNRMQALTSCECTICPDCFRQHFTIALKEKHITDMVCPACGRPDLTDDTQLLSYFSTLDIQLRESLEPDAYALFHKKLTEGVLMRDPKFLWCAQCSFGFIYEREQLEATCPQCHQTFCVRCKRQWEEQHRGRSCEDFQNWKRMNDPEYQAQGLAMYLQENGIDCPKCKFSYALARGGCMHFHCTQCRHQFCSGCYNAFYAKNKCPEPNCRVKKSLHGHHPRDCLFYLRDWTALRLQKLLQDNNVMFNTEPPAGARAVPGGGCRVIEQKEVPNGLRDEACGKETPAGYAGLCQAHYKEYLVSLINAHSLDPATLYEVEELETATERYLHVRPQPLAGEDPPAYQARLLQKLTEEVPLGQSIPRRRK
# Experiment: Fluorescence-based ubiquitin thioester transfer assay
# Assay type: biochemical
# Conditions: HOIP RBR prelabeled with compound; E2 UbcH7
# Description: overnight, and further purified by size-exclusion chromatography (Superdex 75/ÄKTA purifier).
# The appropriate fractions were concentrated to 4 mL in a 3.5 kDa MWCO protein concentrator (Merck). The protein concentration was measured on a Nanodrop UV spectrophotometer (absorbance at 650 nm) as 19 µM and corroborated by SDS PAGE. Labelling was confirmed by protein LC-MS (Supplementary Figure S10). The labelled protein was aliquoted, flash frozen and […]
# Supplementary Figure S10. TIC traces of the deconvoluted protein masses of the M1C ubiquitin mutant (M1C Ub) and the AlexaFluor647 labelled M1C ubiquitin mutant (M1C UbA647).
# Formation of the HOIP RBR-(5) conjugate
# The HOIP RBR domain (7.5 µM) was incubated (Eppendorf Thermomixer) with inhibitor (5) (750 µM, 1.5% DMSO) in 50 mM HEPES, 150 mM NaCl, pH 7.5 buffer at 600 rpm, 23 °C for 18 h. […] The protein concentration was measured on Nanodrop UV spectrophotometer (absorbance at 280 nm), and the protein was flash frozen in liquid nitrogen […]
# (10 min), HOIP RBR or HOIP-RBR-(5) conjugate (5 min), C-terminally His6-tagged ubiquitin (10 min). […] The aliquots were analyzed by SDS PAGE and the gels scanned at 700 nm (LICOR Odyssey CLx) using auto-adjustment of the fluorescence intensity, then stained with Coomassie (Figure 4B and Supplementary Figure S11). […]
smiles,measurement,value
COC(=O)/C=C/CNC(=O)c1cc2c([nH]c1=O)CCC2 [Compound 5],formation of E3~Ub thioester / loading of ubiquitin onto HOIP RBR,inhibits formation of the E3∼Ub thioester intermediate; also recorded: effectively prevented the loading of ubiquitin onto the E3
